This note sets out measurements from PubChem BioAssay AID2327 (Broad Institute, 2010).

Results filed as inconclusive are left out. Activity calls are given as the source filed them.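 Rule for the calls: active = compound whose fitted EC50 for lowering fibroblast viability lies at most a set limit above the top dose tested; inconclusive = flat fit with 30 to 70% activity, or poor fit; inactive = the rest.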

Broadly, the EC50 is the concentration needed to bring the measured effect to its halfway point.

In this experiment the test system is NIH-3T3 fibroblast viability, Alamar Blue, 48 h, fluconazole. Description: NIH-3T3 fibroblast cytotoxicity, dose response, cytotoxicity control, cell-based, fluorescence, Alamar Blue, secondary assay (AID 2327). Background: Resazurin is reduced to fluorescent resorufin, in cell work by metabolically active cells.
`C[C@]12CC[C@H](O)C[C@@H]1CC[C@@H]1[C@@H]2CC[C@]2(C)C(=O)CC[C@@H]12`: the EC50 is > 16 µM (inactive).

Consider `O=C1/C(=C/c2cccnc2)SC(=S)N1C1CCS(=O)(=O)C1` (configuration not stated), for which the EC50 is > 15 µM (inactive).

Take `C[C@]12CCC3[C@@H](CC[C@H]4C[C@@H](O)CC[C@]34C)C1CCC2=O` (some centres not stated): the EC50 was > 15 µM (inactive).

With `NC(=NCCCCCCN=C(N)/N=C(\N)Nc1ccc(Cl)cc1)/N=C(\N)Nc1ccc(Cl)cc1`, the EC50 was > 16 µM (inactive).

For `CC1CCC(C(C)C)C(OC(=O)C[n+]2cc(-c3ccc(Cl)cc3)n3c2CCCCC3)C1` (configuration not stated), the EC50 was > 16 µM (inactive).

For the compound `CC1CCC(C(C)C)C(OC(=O)Cn2c(-c3ccc(Br)cc3)[n+](C)c3ccccc32)C1` (configuration not stated), the EC50 is > 16 µM (inactive).

On to `O=C1/C(=C\c2cccnc2)SC(=S)N1C1CCS(=O)(=O)C1` (configuration not stated), for which the EC50 is > 16 µM (inactive).
